# Measured values as given in ChEMBL document CHEMBL1123898, “Antitumor imidazotetrazines. 14. Synthesis and antitumor activity of 6- and 8-substituted imidazo[5,1-d]-1,2,3,5-tetrazinones and 8-substituted pyrazolo[5,1-d]-1,2,3,5-tetrazinones” (1987).
# Key:
# L1210 [1] = assay: Antitumor activity was assessed against L1210 tumors in B6D2F1 mouse by inoculation of 10e5 tumor cells through intravenous route and mean death of animals (treated/control) was reported at 100 mg/kg peroral dose; assay type: functional; conditions: route oral
# L1210 [2] = assay: Antitumor activity was assessed against L1210 tumors in B6D2F1 mouse by inoculation of 10e5 tumor cells through intravenous route and mean death of animals (treated/control) was reported at 200 mg/kg peroral dose; assay type: functional; conditions: route oral
# L1210 [3] = assay: Antitumor activity was assessed against L1210 tumors in B6D2F1 mouse by inoculation of 10e5 tumor cells through intravenous route and mean death of animals (treated/control) was reported at 50 mg/kg peroral dose; assay type: functional; conditions: route oral
# L1210 [4] = assay: Antitumor activity was assessed against L1210 tumors in B6D2F1 mouse by inoculation of 10e5 tumor cells through intravenous route and number of Survivors to duration was reported at 10 mg/kg peroral dose; 2/10; assay type: functional; conditions: route oral
# L1210 [5] = assay: Antitumor activity was assessed against L1210 tumors in B6D2F1 mouse by inoculation of 10e5 tumor cells through ip route and mean death of animals (treated/control) was reported at 10 mg/kg peroral dose; assay type: functional; conditions: route oral
# L1210 [6] = assay: Antitumor activity was assessed against L1210 tumors in B6D2F1 mouse by inoculation of 10e5 tumor cells through ip route and mean death of animals (treated/control) was reported at 20 mg/kg peroral dose; assay type: functional; conditions: route oral
# L1210 [7] = assay: Antitumor activity was assessed against L1210 tumors in B6D2F1 mouse by inoculation of 10e5 tumor cells through ip route and mean death of animals (treated/control) was reported at 40 mg/kg peroral dose; assay type: functional; conditions: route oral
# [8] = Antitumor activity was assessed against TLX5 tumors in CBA/CA mouse by inoculation of 2 x 10e5 tumor cells through subcutaneous route and number of Survivors to duration was reported at 20 mg/kg iv dose; 1/5; assay type: functional
# [9] = Antitumor activity was assessed against TLX5 tumors in CBA/CA mouse by inoculation of 2 x 10e5 tumor cells through subcutaneous route and number of Survivors to duration was reported at 40 mg/kg iv dose; 5/5; assay type: functional
# [10] = Antitumor activity was assessed against TLX5 tumors in CBA/CA mouse by inoculation of 2 x 10e5 tumor cells through subcutaneous route and mean death of animals (treated/control) was reported at 80 mg/kg iv dose; assay type: functional
# [11] = Antitumor activity was assessed against TLX5 tumors in CBA/CA mouse by inoculation of 2 x 10e5 tumor cells through subcutaneous route and mean death of animals (treated/control) was reported at 10 mg/kg iv dose; assay type: functional
# [12] = Antitumor activity was assessed against TLX5 tumors in CBA/CA mouse by inoculation of 2 x 10e5 tumor cells through subcutaneous route and mean death of animals (treated/control) was reported at 20 mg/kg dose; assay type: functional
# [13] = Antitumor activity was assessed against TLX5 tumors in CBA/CA mouse by inoculation of 2 x 10e5 tumor cells through subcutaneous route and mean death of animals (treated/control) was reported at 40 mg/kg iv dose; assay type: functional
# [14] = Antitumor activity was assessed against TLX5 tumors in CBA/CA mouse by inoculation of 2 x 10e5 tumor cells through subcutaneous route and mean death of animals (treated/control) was reported at 5 mg/kg dose; assay type: functional
# L1210 [15] = assay: Antitumor activity was assessed against L1210 tumors in B6D2F1 mouse by inoculation of 10e5 tumor cells through intraperitoneal route and number of Survivors to duration was reported at 40 mg/kg peroral dose; 2/10; conditions: route oral
# L1210 [16] = assay: Antitumor activity was assessed against L1210 tumors in B6D2F1 mouse by inoculation of 10e5 tumor cells through intraperitoneal route and number of Survivors to duration was reported at 20 mg/kg peroral dose; 10/10; conditions: route oral
# L1210 [17] = assay: Antitumor activity was assessed against L1210 tumors in B6D2F1 mouse by inoculation of 10e5 tumor cells through iv route and number of Survivors to duration was reported at 40 mg/kg po dose; 7/7; assay type: functional
# L1210 [18] = assay: Antitumor activity was assessed against L1210 tumors in B6D2F1 mouse by inoculation of 10e5 tumor cells through iv route and mean death of animals (treated/control) was reported at 20 mg/kg po dose; assay type: functional
# L1210 [19] = assay: Antitumor activity was assessed against L1210 tumors in B6D2F1 mouse by inoculation of 10e5 tumor cells through iv route and mean death of animals (treated/control) was reported at 40 mg/kg po dose; assay type: functional
# L1210 [20] = assay: Antitumor activity was assessed against L1210 tumors in B6D2F1 mouse by inoculation of 10e5 tumor cells through iv route and mean death of animals (treated/control) was reported at 10 mg/kg po dose; assay type: functional
# [21] = Antitumor activity was assessed against TLX5 tumors in CBA/CA mouse by inoculation of 2 x 10e5 tumor cells through sc route and mean death of animals (treated/control) was reported at 20 mg/kg dose; assay type: functional; conditions: route subcutaneous
# [22] = Antitumor activity was assessed against TLX5 tumors in CBA/CA mouse by inoculation of 2 x 10e5 tumor cells through sc route and mean death of animals (treated/control) was reported at 40 mg/kg dose; assay type: functional; conditions: route subcutaneous
# [23] = Antitumor activity was assessed against TLX5 tumors in CBA/CA mouse by inoculation of 2 x 10e5 tumor cells through sc route and mean death of animals (treated/control) was reported at 80 mg/kg dose; assay type: functional; conditions: route subcutaneous
# [24] = Antitumor activity was assessed against TLX5 tumors in CBA/CA mouse by inoculation of 2 x 10e5 tumor cells through sc route and number of survivors was reported at 20 mg/kg ip dose; 3/5; assay type: functional; conditions: route subcutaneous
# [25] = Antitumor activity was assessed against TLX5 tumors in CBA/CA mouse by inoculation of 2 x 10e5 tumor cells through sc route and number of survivors was reported at 40 mg/kg ip dose; 3/5; assay type: functional; conditions: route subcutaneous
# [26] = Antitumor activity was assessed against TLX5 tumors in CBA/CA mouse by inoculation of 2 x 10e5 tumor cells through subcutaneous route and mean death of animals (treated/control) was reported at 10 mg/kg ip dose; assay type: functional
# [27] = Antitumor activity was assessed against TLX5 tumors in CBA/CA mouse by inoculation of 2 x 10e5 tumor cells through subcutaneous route and mean death of animals (treated/control) was reported at 160 mg/kg dose; assay type: functional
# [28] = Antitumor activity was assessed against TLX5 tumors in CBA/CA mouse by inoculation of 2 x 10e5 tumor cells through subcutaneous route and mean death of animals (treated/control) was reported at 20 mg/kg ip dose; assay type: functional
# [29] = Antitumor activity was assessed against TLX5 tumors in CBA/CA mouse by inoculation of 2 x 10e5 tumor cells through subcutaneous route and mean death of animals (treated/control) was reported at 40 mg/kg dose; assay type: functional
# [30] = Antitumor activity was assessed against TLX5 tumors in CBA/CA mouse by inoculation of 2 x 10e5 tumor cells through subcutaneous route and mean death of animals (treated/control) was reported at 80 mg/kg dose; assay type: functional
# [31] = Antitumor activity was assessed against TLX5 tumors in CBA/CA mouse by inoculation of 2 x 10e5 tumor cells through sc route and mean death of animals (treated/control) was reported at 160 mg/kg dose; assay type: functional; conditions: route subcutaneous
# [32] = Antitumor activity was assessed against TLX5 tumors in CBA/CA mouse by inoculation of 2 x 10e5 tumor cells through sc route and mean death of animals (treated/control) was reported at 320 mg/kg dose; assay type: functional; conditions: route subcutaneous
# L1210 [33] = assay: Antitumor activity was assessed against L1210 tumors in B6D2F1 mouse by inoculation of 10e5 tumor cells through iv route and mean death of animals (treated/control) was reported at 80 mg/kg po dose; assay type: functional
# L1210 [34] = assay: Antitumor activity was assessed against L1210 tumors in B6D2F1 mouse by inoculation of 10e5 tumor cells through iv route and mean death of animals (treated/control) was reported at 160 mg/kg po dose; assay type: functional
smiles,measurement,setting,value
NC(=O)c1nc(Cc2ccccc2)n2c(=O)n(CCCl)nnc12,T/C,L1210 [1],114%
same,T/C,L1210 [2],127%
same,T/C,L1210 [3],105%
CNC(=O)c1ncn2c(=O)n(CCCl)nnc12,Survivors,L1210 [4],2
same,T/C,L1210 [5],>192%
same,T/C,L1210 [6],>453%
same,T/C,L1210 [7],>215%
same,Survivors,[8],1
same,Survivors,[9],5
same,T/C,[10],72%
same,T/C,[11],133%
same,T/C,[12],>254%
same,T/C,[13],>555%
same,T/C,[14],104%
same,Survivors,L1210 [15],2
same,Survivors,L1210 [16],10
CN(C)S(=O)(=O)c1ncn2c(=O)n(CCCl)nnc12,Survivors,L1210 [17],7
same,T/C,L1210 [18],222%
same,T/C,L1210 [19],>750%
same,T/C,L1210 [20],152%
same,T/C,[21],>385%
same,T/C,[22],>381%
same,T/C,[23],68%
same,Survivors,[24],3
same,Survivors,[25],3
N#Cc1ncn2c(=O)n(CCCl)nnc12,T/C,[26],96%
same,T/C,[27],80%
same,T/C,[28],102%
same,T/C,[29],102%
same,T/C,[30],104%
O=c1n(CCCl)nnc2c([N+](=O)[O-])cnn12,T/C,L1210 [1],100%
same,T/C,L1210 [2],101%
same,T/C,L1210 [3],101%
NC(=O)c1nc(C2CCCCC2)n2c(=O)n(CCCl)nnc12,T/C,L1210 [1],86%
same,T/C,L1210 [2],90%
same,T/C,L1210 [3],94%
COc1ccc(CNS(=O)(=O)c2ncn3c(=O)n(CCCl)nnc23)cc1,T/C,[31],123%
same,T/C,[21],113%
same,T/C,[32],109%
same,T/C,[23],151%
CCCCc1nc(C(N)=O)c2nnn(CCCl)c(=O)n12,T/C,L1210 [19],100%
same,T/C,L1210 [33],113%
same,T/C,L1210 [34],147%
